Data from patent US7601716B2, “Pyridopyrazines and derivatives thereof as ALK and c-Met inhibitors” (Cephalon, Inc., priority 2006, dated 2009).

Target: baculovirus-expressed ALK (Homo sapiens, UniProt Q9UM73)
Experiment: ALK Kinase Assay (ELISA/TRF, PLC-γ substrate); also: 1 µM ATP (Km level)
Type: biochemical
Settings: read-out: ALK Kinase Inhibition (IC50)
Procedure, shortened: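 An ELISA adapted from a trkA format was used: wells carried GST-fused PLC-γ substrate, and enzyme addition (30 ng/ml ALK) started a 15-minute reaction at 37° C.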

Sequence of baculovirus-expressed ALK (Q9UM73 19-1620): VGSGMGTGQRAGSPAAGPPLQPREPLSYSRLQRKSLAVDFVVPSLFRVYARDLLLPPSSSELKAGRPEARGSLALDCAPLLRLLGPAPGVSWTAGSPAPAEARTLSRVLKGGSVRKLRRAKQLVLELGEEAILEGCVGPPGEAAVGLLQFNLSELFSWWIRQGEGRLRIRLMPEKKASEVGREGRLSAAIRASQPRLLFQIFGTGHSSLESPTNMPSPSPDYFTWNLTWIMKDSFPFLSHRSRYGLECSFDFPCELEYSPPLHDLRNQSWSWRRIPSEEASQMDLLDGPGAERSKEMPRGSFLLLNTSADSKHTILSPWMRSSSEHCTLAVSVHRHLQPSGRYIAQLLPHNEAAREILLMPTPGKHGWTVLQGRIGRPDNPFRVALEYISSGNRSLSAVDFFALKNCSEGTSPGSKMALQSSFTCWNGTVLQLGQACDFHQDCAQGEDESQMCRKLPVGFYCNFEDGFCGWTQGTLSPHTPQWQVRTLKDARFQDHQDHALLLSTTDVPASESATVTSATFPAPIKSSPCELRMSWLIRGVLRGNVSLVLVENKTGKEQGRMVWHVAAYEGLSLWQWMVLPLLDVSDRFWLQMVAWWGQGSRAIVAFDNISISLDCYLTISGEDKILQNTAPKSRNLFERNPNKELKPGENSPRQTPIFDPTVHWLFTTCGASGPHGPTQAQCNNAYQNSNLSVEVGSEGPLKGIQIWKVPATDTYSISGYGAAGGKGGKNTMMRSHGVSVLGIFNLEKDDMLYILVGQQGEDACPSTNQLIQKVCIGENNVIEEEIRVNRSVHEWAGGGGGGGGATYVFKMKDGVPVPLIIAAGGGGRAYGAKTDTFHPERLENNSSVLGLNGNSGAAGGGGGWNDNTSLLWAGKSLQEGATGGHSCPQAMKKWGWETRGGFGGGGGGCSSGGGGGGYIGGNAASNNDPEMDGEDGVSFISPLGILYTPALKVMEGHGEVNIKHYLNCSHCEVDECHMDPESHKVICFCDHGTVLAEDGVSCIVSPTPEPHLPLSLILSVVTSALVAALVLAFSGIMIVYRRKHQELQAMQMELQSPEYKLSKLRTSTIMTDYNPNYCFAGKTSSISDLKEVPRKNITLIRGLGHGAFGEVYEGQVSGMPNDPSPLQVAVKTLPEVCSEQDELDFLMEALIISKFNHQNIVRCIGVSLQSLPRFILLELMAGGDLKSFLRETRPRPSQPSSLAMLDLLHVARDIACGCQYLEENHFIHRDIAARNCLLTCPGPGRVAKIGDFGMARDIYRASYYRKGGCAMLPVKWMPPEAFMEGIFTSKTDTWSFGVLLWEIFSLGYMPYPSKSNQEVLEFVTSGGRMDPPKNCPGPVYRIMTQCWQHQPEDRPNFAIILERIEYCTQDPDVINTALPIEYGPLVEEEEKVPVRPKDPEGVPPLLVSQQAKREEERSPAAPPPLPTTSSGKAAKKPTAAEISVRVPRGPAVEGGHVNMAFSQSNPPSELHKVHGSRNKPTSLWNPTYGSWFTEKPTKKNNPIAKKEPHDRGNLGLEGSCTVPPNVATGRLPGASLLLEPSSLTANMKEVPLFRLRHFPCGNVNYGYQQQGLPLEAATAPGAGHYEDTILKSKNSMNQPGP

SMILES	IC50
O=C(c1ccc(-c2cnc3c(c2)N(Cc2cc(Cl)ccc2C(F)(F)F)CCN3)cc1)N1CCN(c2nccc3occc23)CC1 [Example 386, (4-{1-[5-Chloro-2-(trifluoromethyl)benzyl]-1,2,3,4-tetrahydropyrido[2,3-b]pyrazin-7-yl}phenyl)-(4-furo[3,2-c]pyridin-4-ylpiperazin-1-yl)methanone]	100 to 1000 nM
O=C(c1ccc(-c2cnc3c(c2)N(Cc2cc(Cl)ccc2C(F)(F)F)CCN3)cc1)N1CCC(c2noc3cc(F)ccc23)CC1 [Example 387, (4-{1-[5-Chloro-2-(trifluoromethyl)benzyl]-1,2,3,4-tetrahydropyrido[2,3-b]pyrazin-7-yl}phenyl)-[4-(6-fluorobenzo[d]isoxazol-3-yl)-piperidin-1-yl]methanone]	100 to 1000 nM
O=C(NCCc1ccccn1)c1ccc(-c2cnc3c(c2)N(Cc2cc(Cl)ccc2C(F)(F)F)CCN3)cc1 [Example 388, 4-{1-[5-Chloro-2-(trifluoromethyl)benzyl]-1,2,3,4-tetrahydropyrido[2,3-b]pyrazin-7-yl}-N-(2-pyridin-2-yl-ethyl)benzamide]	100 to 1000 nM
CCOC(=O)N1CCC(NC(=O)c2ccc(-c3cnc4c(c3)N(Cc3cc(Cl)ccc3C(F)(F)F)CCN4)cc2)CC1 [Example 389, 4-(4-{1-[5-Chloro-2-(trifluoromethyl)benzyl]-1,2,3,4-tetrahydropyrido[2,3-b]pyrazin-7-yl}benzoylamino)piperidine-1-carboxylic acid ethyl ester]	100 to 1000 nM
O=C(NC1CCN(Cc2ccccc2)CC1)c1ccc(-c2cnc3c(c2)N(Cc2cc(Cl)ccc2C(F)(F)F)CCN3)cc1 [Example 390, N-(1-Benzylpiperidin-4-yl)-4-{1-[5-chloro-2-(trifluoromethyl)benzyl]-1,2,3,4-tetrahydropyrido[2,3-b]pyrazin-7-yl}benzamide]	100 to 1000 nM
O=C(NCC(c1ccccc1)c1ccccc1)c1ccc(-c2cnc3c(c2)N(Cc2cc(Cl)ccc2C(F)(F)F)CCN3)cc1 [Example 391, 4-{1-[5-Chloro-2-(trifluoromethyl)benzyl]-1,2,3,4-tetrahydropyrido[2,3-b]pyrazin-7-yl}-N-(2,2-diphenylethyl)benzamide]	100 to 1000 nM
CC(=O)N1CCN(C(=O)c2ccc(-c3cnc4c(c3)N(Cc3cc(Cl)ccc3C(F)(F)F)CCN4)cc2)CC1 [Example 392, 1-[4-(4-{1-[5-Chloro-2-(trifluoromethyl)benzyl]-1,2,3,4-tetrahydropyrido[2,3-b]pyrazin-7-yl}benzoyl)piperazin-1-yl]ethanone]	< 100 nM
CN1CCC(NC(=O)c2ccc(-c3cnc4c(c3)N(Cc3cc(Cl)ccc3C(F)(F)F)CCN4)cc2)CC1 [Example 393, 4-{1-[5-Chloro-2-(trifluoromethyl)benzyl]-1,2,3,4-tetrahydropyrido[2,3-b]pyrazin-7-yl}-N-(1-methylpiperidin-4-yl)benzamide]	< 100 nM
O=C(c1ccc(-c2cnc3c(c2)N(Cc2cc(Cl)ccc2C(F)(F)F)CCN3)cc1)N1CCN(CCc2ccccn2)CC1 [Example 394, (4-{1-[5-Chloro-2-(trifluoromethyl)benzyl]-1,2,3,4-tetrahydropyrido[2,3-b]pyrazin-7-yl}phenyl)-[4-(2-pyridin-2-yl-ethyl)piperazin-1-yl]methanone]	< 100 nM
O=C(NCc1ccc(OC(F)(F)F)cc1)c1ccc(-c2cnc3c(c2)N(Cc2cc(Cl)ccc2C(F)(F)F)CCN3)cc1 [Example 395, 4-{1-[5-Chloro-2-(trifluoromethyl)benzyl]-1,2,3,4-tetrahydropyrido[2,3-b]pyrazin-7-yl}-N-[4-(trifluoromethoxy)benzyl]benzamide]	100 to 1000 nM
O=C(NCc1ccc(C(F)(F)F)cc1)c1ccc(-c2cnc3c(c2)N(Cc2cc(Cl)ccc2C(F)(F)F)CCN3)cc1 [Example 396, 4-{1-[5-Chloro-2-(trifluoromethyl)benzyl]-1,2,3,4-tetrahydropyrido[2,3-b]pyrazin-7-yl}-N-[4-(trifluoromethyl)benzyl]benzamide]	100 to 1000 nM
O=C(NCc1cc(C(F)(F)F)cc(C(F)(F)F)c1)c1ccc(-c2cnc3c(c2)N(Cc2cc(Cl)ccc2C(F)(F)F)CCN3)cc1 [Example 397, N-[3,5-Bis(trifluoromethyl)benzyl]-4-{1-[5-Chloro-2-(trifluoromethyl)benzyl]-1,2,3,4-tetrahydropyrido[2,3-b]pyrazin-7-yl}benzamide]	100 to 1000 nM
O=C(NCCc1cccs1)c1ccc(-c2cnc3c(c2)N(Cc2cc(Cl)ccc2C(F)(F)F)CCN3)cc1 [Example 398, 4-{1-[5-Chloro-2-(trifluoromethyl)benzyl]-1,2,3,4-tetrahydropyrido[2,3-b]pyrazin-7-yl}-N-(2-thiophen-2-yl-ethyl)benzamide]	100 to 1000 nM
O=C(NC(c1ccccc1)c1ccccc1)c1ccc(-c2cnc3c(c2)N(Cc2cc(Cl)ccc2C(F)(F)F)CCN3)cc1 [Example 399, N-Benzhydryl-4-{1-[5-chloro-2-(trifluoromethyl)benzyl]-1,2,3,4-tetrahydropyrido[2,3-b]pyrazin-7-yl}benzamide]	1000 to 10000 nM
O=C(NCc1ccncc1)c1ccc(-c2cnc3c(c2)N(Cc2cc(Cl)ccc2C(F)(F)F)CCN3)cc1 [Example 400, 4-{1-[5-Chloro-2-(trifluoromethyl)benzyl]-1,2,3,4-tetrahydropyrido[2,3-b]pyrazin-7-yl}-N-pyridin-4-ylmethylbenzamide]	100 to 1000 nM
O=C(NCc1cccnc1)c1ccc(-c2cnc3c(c2)N(Cc2cc(Cl)ccc2C(F)(F)F)CCN3)cc1 [Example 401, 4-{1-[5-Chloro-2-(trifluoromethyl)benzyl]-1,2,3,4-tetrahydropyrido[2,3-b]pyrazin-7-yl}-N-pyridin-3-ylmethylbenzamide]	100 to 1000 nM
CC(C)NC(=O)CN1CCN(C(=O)c2ccc(-c3cnc4c(c3)N(Cc3cc(Cl)ccc3C(F)(F)F)CCN4)cc2)CC1 [Example 402, 2-[4-(4-{1-[5-Chloro-2-(trifluoromethyl)benzyl]-1,2,3,4-tetrahydropyrido[2,3-b]pyrazin-7-yl}benzoyl)piperazin-1-yl]-N-isopropylacetamide]	< 100 nM
Cc1cc(N2CCN(C(=O)c3ccc(-c4cnc5c(c4)N(Cc4cc(Cl)ccc4C(F)(F)F)CCN5)cc3)CC2)c2ccccc2n1 [Example 403, (4-{1-[5-Chloro-2-(trifluoromethyl)benzyl]-1,2,3,4-tetrahydropyrido[2,3-b]pyrazin-7-yl}phenyl)-[4-(2-methylquinolin-4-yl)piperazin-1-yl]methanone]	< 100 nM
COCCNC(=O)c1ccc(-c2cnc3c(c2)N(Cc2cc(Cl)ccc2C(F)(F)F)CCN3)cc1 [Example 404, 4-{1-[5-Chloro-2-(trifluoromethyl)benzyl]-1,2,3,4-tetrahydropyrido[2,3-b]pyrazin-7-yl}-N-(2-methoxyethyl)benzamide]	< 100 nM
NS(=O)(=O)c1ccc(CCNC(=O)c2ccc(-c3cnc4c(c3)N(Cc3cc(Cl)ccc3C(F)(F)F)CCN4)cc2)cc1 [Example 405, 4-{1-[5-Chloro-2-(trifluoromethyl)benzyl]-1,2,3,4-tetrahydropyrido[2,3-b]pyrazin-7-yl}-N-[2-(4-sulfamoylphenyl)ethyl]benzamide]	100 to 1000 nM
O=C(c1ccc(-c2cnc3c(c2)N(Cc2cc(Cl)ccc2C(F)(F)F)CCN3)cc1)N1CCN(c2cnccn2)CC1 [Example 406, (4-{1-[5-Chloro-2-(trifluoromethyl)benzyl]-1,2,3,4-tetrahydropyrido[2,3-b]pyrazin-7-yl}phenyl)-(2,3,5,6-tetrahydro[1,2′]bipyrazinyl-4-yl)methanone]	< 100 nM
O=C(NCc1csc(-c2ccccc2)n1)c1ccc(-c2cnc3c(c2)N(Cc2cc(Cl)ccc2C(F)(F)F)CCN3)cc1 [Example 407, 4-{1-[5-Chloro-2-(trifluoromethyl)benzyl]-1,2,3,4-tetrahydropyrido[2,3-b]pyrazin-7-yl}-N-(2-phenylthiazol-4-ylmethyl)benzamide]	100 to 1000 nM
O=C(c1ccc(-c2cnc3c(c2)N(Cc2cc(Cl)ccc2C(F)(F)F)CCN3)cc1)N1CCOCC1 [Example 408, (4-{1-[5-Chloro-2-(trifluoromethyl)benzyl]-1,2,3,4-tetrahydropyrido[2,3-b]pyrazin-7-yl}phenyl)morpholin-4-ylmethanone]	100 to 1000 nM
O=C(NCc1cccc2ccccc12)c1ccc(-c2cnc3c(c2)N(Cc2cc(Cl)ccc2C(F)(F)F)CCN3)cc1 [Example 409, 4-{1-[5-Chloro-2-(trifluoromethyl)benzyl]-1,2,3,4-tetrahydropyrido[2,3-b]pyrazin-7-yl}-N-naphthalen-1-ylmethylbenzamide]	1000 to 10000 nM
O=C(NC1CCc2ccccc21)c1ccc(-c2cnc3c(c2)N(Cc2cc(Cl)ccc2C(F)(F)F)CCN3)cc1 (centres unmarked) [Example 410, 4-{1-[5-Chloro-2-(trifluoromethyl)benzyl]-1,2,3,4-tetrahydropyrido[2,3-b]pyrazin-7-yl}-N-indan-1-ylbenzamide]	100 to 1000 nM
COc1ccc(N2CCN(C(=O)c3ccc(-c4cnc5c(c4)N(Cc4cc(Cl)ccc4C(F)(F)F)CCN5)cc3)CC2)cc1 [Example 411, (4-{1-[5-Chloro-2-(trifluoromethyl)benzyl]-1,2,3,4-tetrahydropyrido[2,3-b]pyrazin-7-yl}phenyl)-[4-(4-methoxyphenyl)piperazin-1-yl]methanone]	100 to 1000 nM
O=C(NCc1ccccc1Cl)c1ccc(-c2cnc3c(c2)N(Cc2cc(Cl)ccc2C(F)(F)F)CCN3)cc1 [Example 412, N-(2-Chlorobenzyl)-4-{1-[5-chloro-2-(trifluoromethyl)benzyl]-1,2,3,4-tetrahydropyrido[2,3-b]pyrazin-7-yl}benzamide]	100 to 1000 nM
O=C(NCc1ccc(Cl)cc1)c1ccc(-c2cnc3c(c2)N(Cc2cc(Cl)ccc2C(F)(F)F)CCN3)cc1 [Example 413, N-(4-Chlorobenzyl)-4-{1-[5-chloro-2-(trifluoromethyl)benzyl]-1,2,3,4-tetrahydropyrido[2,3-b]pyrazin-7-yl}benzamide]	100 to 1000 nM
O=C(NCc1cccc(Cl)c1)c1ccc(-c2cnc3c(c2)N(Cc2cc(Cl)ccc2C(F)(F)F)CCN3)cc1 [Example 414, N-(3-Chloro-benzyl)-4-{1-[5-chloro-2-(trifluoromethyl)benzyl]-1,2,3,4-tetrahydropyrido[2,3-b]pyrazin-7-yl}benzamide]	100 to 1000 nM
